Laboratory results published in patent publication US11000511B2, “Chemical compounds as antibiotics” (priority 2017, dated 2021).

Legend:
[1] = target: T1, purified LasB protein from P. aeruginosa (Pseudomonas aeruginosa, UniProt P14756); assay: Fluorometric assay to determine Ki (Assay 2); type: biochemical
T1 construct: purchased Merck or Charles River Laboratories
Method: (§1) Experiments were therefore conducted (1) to measure the potency of inhibition of compounds of the invention against purified Pseudomonas aeruginosa LasB enzyme and also experiments were conducted (2) to measure the ability of compounds of the invention to inhibit LasB-catalysed elastin degradation. The first assay uses a commercial fluorescent synthetic peptide and purified LasB enzyme. The LasB hydrolysis kinetics are measured allowing the determination of the IC50 and Ki of the inhibitors; the second is a more physiological assay using dialysed Pseudomonas aeruginosa supernatant as source of enzyme, plus its natural substrate Elastin. It is an “end point assay” that determines the percentage of LasB inhibition by each compound for one particular time point and inhibitor concentration. Technical details are described below:
This assay uses commercially available substrate (Abz-Ala-Gly-Leu-Ala-p-Nitro-Benzyl-Amide (Ex: 340 nm, Em: 415 nm) from Peptide International) and purified LasB protein from P. aeruginosa (provided by Merck or Charles River Laboratories). It is performed to determine LasB elastase activity and assess compound inhibition in 96-well plate format. Some compounds of Formula (I) were assessed using the method of Assay 1 (described below). Other compounds of Formula (I) were assessed using the alternative but equivalent method of Assay 2 (described below).
Method: 10 to 140 ng/ml purified LasB is incubated with 250 μM Abz-Ala-Gly-Leu-Ala-p-Nitro-Benzyl-Amide in 50 mM Tris-HCl pH 7.4, 2.5 mM CaCl2), 0.01% of Triton X100 at 37° C. LasB activity (corresponding to fluorescence emission induced by substrate hydrolysis) is measured over 30 min at 37° C. with a fluorescence plate reader such as the Perkin Elmer Envision or similar. Different range of inhibitor concentrations are routinely assessed depending of inhibitor potency from 0.006 to 200 μM (Assay 1; 2-fold dilutions series) or from 0.0016 to 200 μM (Assay 2; 2-fold dilutions series) in order to determine IC50.
The equation used to calculate the Ki from IC50 is: Ki=IC50/(1+([S]/Km)) where [S]=250 μM and Km=214 μM.

[2] = target: T2, LasB elastase activity in dialysed supernatant from P. aeruginosa strain PA01 (Pseudomonas aeruginosa, UniProt P14756); assay: Elastin Congo Red assay to determine % inhibition (Assay 2); type: biochemical; settings: read-out: Elastin hydrolysis % inhibition @ 50/25 μM inhibitor concentration Assay 2
T2 construct: uses as source of enzyme dialysed supernatant from P. aeruginosa; endogenous in cells; host or cells: P. aeruginosa strain PA01 culture supernatant, filtered and dialysed
Method: as §1
The Elastin assay uses as source of enzyme dialysed supernatant from P. aeruginosa and the elastin congo red as substrate. The natural LasB substrate, elastin, is complexed with the congo red dye (Elastin Congo Red, ECR). The elastolysis activity from the culture supernatant will degrade elastin and release the congo red dye into the supernatant. This red dye release can be measured with a spectrophotometer. Some compounds of Formula (I) were assessed using the method of Assay 1 (described below). Other compounds of Formula (I) were assessed using the alternative but equivalent method of Assay 2 (described below).
Method (Assay 2): To determine LasB elastase activity and assess compound inhibition, an overnight culture of P. aeruginosa strain PA01 is diluted in LB medium. After reaching an OD600 nm of 0.6, this culture is diluted and incubated for additional 18-24 h in a shaking incubator. Culture supernatants are recovered by centrifugation and filtrated through a […] filter. These supernatants are dialysed (filtration molecules <20 kDa) into a 50 mM Tris-HCl pH 7.4, 2.5 mM CaCl2 solution at 4° C. under agitation for 24 h. Supernatant dialysed is then mixed volume/volume with the ECR suspension (20 mg/mL of ECR in 100 mM Tris-HCl pH 7.4 buffer supplemented with 1 mM CaCl2) supplemented with TritonX 100 (final concentration of 0.01%) in presence of DMSO (positive control) and/or different concentrations of compound (routinely […]). As a negative control, the dialysed supernatant is replaced by Tris-HCl solution (50 mM Tris-HCl pH 7.4, 2.5 mM CaCl2). The mixed reaction is then incubated overnight in a 37° C. shaking incubator. The reaction supernatant is recovered by centrifugation and the release of congo-red is measured by its absorbance at 495 nm (OD495 nm).
Percentage inhibition is determined using the following equation: ((OD495 nm value of positive control−OD495 nm value of negative control)−(OD495 nm value of treated supernatant−OD495 nm value of negative control))/(OD495 nm value of positive control−OD495 nm value of negative control)×100.

T2 sequence (P14756 198-498): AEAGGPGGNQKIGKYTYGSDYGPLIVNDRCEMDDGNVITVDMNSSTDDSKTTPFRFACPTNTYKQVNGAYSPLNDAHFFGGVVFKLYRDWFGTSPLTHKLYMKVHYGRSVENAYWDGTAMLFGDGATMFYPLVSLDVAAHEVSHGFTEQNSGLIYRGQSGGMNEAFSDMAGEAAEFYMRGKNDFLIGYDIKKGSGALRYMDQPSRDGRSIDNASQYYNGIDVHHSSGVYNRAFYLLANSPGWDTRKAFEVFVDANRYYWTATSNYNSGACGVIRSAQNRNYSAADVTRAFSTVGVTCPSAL
T1 sequence (P14756 198-498): as above

Structure (SMILES) | Ki [1] [nM] | inhibition at 50 µM [2] [%]
COc1cc2sc(CNC(=O)C3(CC(=O)O)Cc4ccccc4C3)nc2cc1N1CC(N(C)C)C1 [Example 122, 2-(2-(((5-(3-(dimethylamino)azetidin-1-yl)-6-methoxybenzo[d]thiazol-2-yl)methyl)carbamoyl)-2,3-dihydro-1H-inden-2-yl)acetic acid] | < 300 | > 60
O=C(O)CC1(C(=O)NCc2nc3ccccc3s2)Cc2cc(F)c(F)cc2C1 [Example 120, 2-(2-((benzo[d]thiazol-2-ylmethyl)carbamoyl)-5,6-difluoro-2,3-dihydro-1H-inden-2-yl)acetic acid] | < 300 | > 60
O=C(O)CC1(C(=O)NCc2nc3ccc(O)cc3s2)Cc2ccccc2C1 [Example 107, 2-[2-[(6-hydroxy-1,3-benzothiazol-2-yl)methylcarbamoyl]indan-2-yl]acetic acid] | < 300 | > 60
COc1cc2sc(CNC(=O)C3(CC(=O)O)Cc4cc(F)c(F)cc4C3)nc2cc1OCCCN(C)C [Example 124, 2-(2-(((5-(3-(dimethylamino)propoxy)-6-methoxybenzo[d]thiazol-2-yl)methyl)carbamoyl)-5,6-difluoro-2,3-dihydro-1H-inden-2-yl)acetic acid] | < 300 | > 60
COc1cc2sc(CNC(=O)C3(CC(=O)O)Cc4cc(F)c(F)cc4C3)nc2cc1OCCC[N+](C)(C)C [Example 125, 2-(5,6-difluoro-2-(((6-methoxy-5-(3-(trimethylammonio)propoxy)benzo[d]thiazol-2-yl)methyl)carbamoyl)-2,3-dihydro-1H-inden-2-yl)acetate] | < 300 | > 60
COc1cc2nc(CNC(=O)C3(CC(=O)O)Cc4ccccc4C3)sc2cc1OC [Example 114, 2-[2-[(5,6-dimethoxy-1,3-benzothiazol-2-yl)methylcarbamoyl]indan-2-yl]acetic acid] | < 300 | > 60
O=C(O)CC1(C(=O)NCc2nc3ccc(OCCO)cc3s2)Cc2ccccc2C1 [Example 109, 2-[2-[[6-(2-hydroxyethoxy)-1,3-benzothiazol-2-yl]methylcarbamoyl]indan-2-yl]acetic acid] | < 300 | > 60
O=C(O)CC1(C(=O)NCc2nc3ccc(OC(F)(F)F)cc3s2)Cc2ccccc2C1 [Example 128, 2-[2-[[6-(trifluoromethoxy)-1,3-benzothiazol-2-yl]methylcarbamoyl]indan-2-yl]acetic acid] | < 300 | > 60
COc1cc2sc(CNC(=O)C3(CC(=O)O)Cc4ccccc4C3)nc2cc1OCCN(C)C [Example 126, 2-(2-(((5-(2-(dimethylamino)ethoxy)-6-methoxybenzo[d]thiazol-2-yl)methyl)carbamoyl)-2,3-dihydro-1H-inden-2-yl)acetic acid] | < 300 | > 60
COc1cc2sc(CNC(=O)C3(CC(=O)O)Cc4ccccc4C3)nc2cc1N1CC([N+](C)(C)C)C1 [Example 123, 2-(2-(((6-methoxy-5-(3-(trimethylammonio)azetidin-1-yl)benzo[d]thiazol-2-yl)methyl)carbamoyl)-2,3-dihydro-1H-inden-2-yl)acetate] | < 300 | > 60
O=C(O)CC1(C(=O)NCc2nc3cc4c(cc3s2)OCO4)Cc2ccccc2C1 [Example 115, 2-[2-([1,3]dioxolo[4,5-f][1,3]benzothiazol-6-ylmethylcarbamoyl)indan-2-yl]acetic acid] | < 300 | > 60
